As a reminder, the melting point is the temperature, or range, at which the solid turns liquid. Usually IC90 stands for the point of the concentration-response curve where the effect stands at 90%.

Molecules are shown by their SMILES. Where “and” joins values, the source holds several entries; their conditions need not be identical. Identical values can stand only once. Like-named read-outs stand apart in the source and are kept apart here.

Data set [1] concerns the target HIV-1 protease (Human immunodeficiency virus type 1 group M subtype B, UniProt P04585). In words: Fluorescence HIV-1 Protease Inhibitor Assay (Pandex). The format is biochemical. On the set-up: made in house; host or cells: E. coli K12 L507/pHP10D (NRRL B-18560).
The test system of data set [2] is Viral SN123 infected CEM cells. Particulars: Human immunodeficiency virus 1, CCRF-CEM, values in parentheses are 35B in same assay.
Description: Purpose: To determine IC50 CC50 for compounds:
Media A [1% DMSO] (100 microliters DMSO+9.9 ml media A)
CEM cells @ [1×10^4] cells/ml (4 plate=40 ml) (6 plate=60 ml)
(need 70 microliters of each)
A-D at [10 mM] in 100% DMSO
4 or 6 u-bottom 96-well plates
4 flat bottom 96-well plates for dilutions
8-10 boxes of sterile costar tips
Approximately 10 reagent trays
1000 cells/well=1×10^4 cells/ml=1000 cells/100 microliters 200 microliters=total volume in a well
Cell Preparation and Plating of Cells, Media A and Media A (1% DMSO)
a. Number a 96-well tissue culture plate for each compound tested, one for a control plate, and one for the control compound.
b. Count cells on hemacytometer and resuspend them in 40 ml or 80 ml of Media A at a concentration of [1×10^4]0 cells/ml.
Counting Cells on a Hemacytomer:
Label two 1.8 ml nuc tubes 1 and 2.
Put 0.5 ml of well mixed CEM cells (in growth phase) in tube 1.
Put 50 micoliters PBS and 40 microliters of trypan blue into tube 2.
Mix up the cells in tube 1 then remove 10 microliters of cells and put them into tube 2.
Mix well in tube 2, then remove 10 microliters of the stained cells and put them on the hemacytometer.
Count the number of cells in the center square of the hemacytometer with the microscope set on 10×.
The concentration of the stock CEM's in cells/ml is as follows:
Cells counted×1×10^5=Concentration of CEM's in [cells/ml].
c. Add 200 microliters Media A to: A1 of places 2-6. These are Blanks. A4-H4 of plate 1. These are Blanks.
d. Add 5 microlicers Media A to all wells of Rows A-D of plates 2-6 except A1 (the top half of each plate).
e. Add 50 microliters of Media A to wells A1-D3 of Plate 1 (the top half of the plate).
f. Add 50 microliters Media A[l% DMSO] to all wells of Columns 1-3 of plate 1.
This puts 1000 cells/well.
h. Put plates in an incubator while doing drug dilutions.
Preparation Control and Test Drugs
(1) Put 60 microliters of DMSO into all wells of Columns 2-12, Rows A-E.
(3) Put 70 microliters of A [10 mM] at 100% DMSO into well B1.
(4) Put 70 microliters of B [10 mM] at 100% DMSO into well C1.
(5) Put 70 microliters of C [10 mM] at 100% DMSO into well D1.
(6) Put 70 microliters of D [10 mM] at 100% DMSO into well E1.
Change tips before each dilution.
(1) In rows A-E of another plate make a row for the first 1:10 dilution to correspond to each compound's 100% DMSO row.
A into Row B for the first 1:10 dilution.
B into Row C for the first 1:10 dilution.
C into Row D for the first 1:10 dilution.
D into Row E for the first 1:10 dilution.
(2) Put 180 microliters of media A into all wells of rows A-E corresponding to the 100% DMSO rows. 2.5 ml needed per row.
(3) Remove 20 microliters from all wells of each row of the 100% DMSO rows and transfer it to the corresponding 1:10 row.
(1) Make a plate for every 3 compounds to be tested.
Use 20 ml of media A per plate.
(3) Transfer 25 microliters of each compound from the row in the 1:10 dilution to the corresponding two rows on the 1:100 dilution plate changing tips before each transfer.
Addition of Viral SN123 to Plates
a. Thaw Sn123 in 37° C. water bath for approximately 10 minutes.
b. Dilute Sn123 1:16 by adding 1 ml of Sn123 to 15 ml of media A.
c. Add 50 microliters of Sn123 [1:16] to wells E1-H12 of plates 2-6 and to wells E1-H3 of plate 1.
Addition of Drugs to Plates
a. Add 50 microliters of the control and test drugs from the rows in the 1:100 dilution plates to the appropriate rows in the final plates (changing tips before each transfer). One row in the 1:100 plate will do 4 rows in the final plate. Leave A1 blank.
b. Incubate all plates 7 days at 37° C. 5% CO2.
c. Do Xtt protocol on day 7 as follows:
d. Preparation of Xtt/PMS Solution: (4 plate=20 ml) (6 plate=30 ml)
100 microliters [100 mM] PMS+4.9 ml PBS=PMS at [2 mM]
(2) Heat 500 ml of H2O in microwave for 5 minutes on high.
(3) Put 20 or 30 ml of phenol red RPMI in a 50 ml centrifuge tube.
(4) Put the RPMI in the beaker of hot water.
(5) Add 20 or 30 mg of XTT to the warmed up RPMI.
The subject of data set [3] is HIV-1 isolates IIIB and/or RF in MT-2 cells. Briefly: SRI primary anti-HIV screen, MTT assay of inhibition of HIV-induced cell killing in MT2 cells. The class given is cell-based. Conditions: MT2 cells. From the text:
I. Primary Drug Screening of Anti-HIV Compounds at Southern Research Institute (SRI) (Results recorded in Table 1 are designated “SRI CEM (ng/ml)” or “SRI MT2 (ng/ml)”)
(§1) A. Principle of MTT Assay:
(§2) SRI has an established program for the primary antiviral analysis of compounds in microtiter assays which measures the ability of a selected compound to inhibit HIV-induced cell killing. This assay involves the conversion of the tetrazolium dye MTT to a colored formazan product by mitochondrial enzymes in metabolically active cells. This assay system is used at SRI to screen over 30,000 compounds per year. Briefly, the assay involves the infection of CEM or MT2 cells in round bottom 96-well plates. The compound of interest is added just prior to infection. Following 6 days of incubation at 37° C. the plates are stained with MTT. The results of the assay are quantitated spectrophotometrically on a Molecular Devices Vmax plate reader. The data are analyzed by linear regression utilizing an in-house software program to calculate antiviral activity (IC25, IC50, IC95) and toxicity (TC25, TC50, TC95) as well as other values.
(§3) Primary antiviral assays are routinely performed in CEM or MT-2 cells.
(§4) B. Standard Screening Assays in CEM and MT-2 Cells
(§5) 1. Compound dilution and delivery to the plates
Drugs are solubilized in the appropriate vehicle such as distilled water or DMSO if necessary. Latex gloves, lab coats and masks are used during all phases of the handling process to prevent exposure to potentially harmful agents. The drug is prepared at the appropriate concentration and stored at −20° C. until used by the screening laboratory. The first dilution of each compound is made in a dilution tube with medium to yield a concentration two-fold that of the highest test concentration. Sterile titer tubes are then used to make serial one half-log dilutions of each compound. Following drug dilution, the diluted compound is added to the appropriate well of a 96-well microtiter plate. […] When testing includes only six dilutions, two drugs can be assayed on a single microtiter plate. The drugs are added to the plate in a final volume of 100 microliters.
(§6) During the time the drug dilutions are prepared, cells are washed and counted. Viability is monitored by trypan blue dye exclusion and assays are not performed if the viability falls below 90%. Cells are maintained in an exponential growth phase and are split 1:2 on the day prior to assay to assure exponential growth rate.
(§7) For the primary screen, the cell lines utilized are CEM and MT-2. Unless otherwise indicated, the medium used is RPMI 1640 with 10% heat-inactivated fetal calf serum (FBS), glutamine and antibiotics.
(§8) Cells are propagated at 37° C. in an atmosphere of 5% CO2 in air. The virus employed for this work is HIV-1 isolates IIIB and/or RF, which are prepared by an acute infection process.
(§9) Briefly, virus-infected cells are pelleted on a daily basis beginning at three days post-infection until the virus has killed all of the cells in the culture. Reverse transcriptase activity and p24 ELISA are used to identify pools with the greatest amout of virus.
(§10) These 24-hour harvests are pooled, filtered and frozen at −90° C. Prior to use in the assay, the infectious pool of virus is titered on all available cell lines in order to determine the amount of virus required in the antiviral assay.
In general, pools produced by the acute infection method require the addition of one microliter of infectious virus per well resulting in the screening of drugs at a multiplicity of infection of 0.01. In this manner, enough virus is prepared and frozen to complete over one thousand microtiter plates, allowing the testing of up to two thousand compounds from a single stock of infectious virus. The use of a single stock of virus for a long period of testing has very favorable effects on the repeatability of the assay systems. […]
(In general: Tetrazolium assays rely on reduction of a dye to a coloured formazan, in cell work by metabolically active cells.)

The subject of data set [4] is HIV-1 isolates IIIB and/or RF in CEM cells. In words: SRI primary anti-HIV screen, MTT assay of inhibition of HIV-induced cell killing in CEM cells. The format is cell-based. Conditions: CEM cells. The method, then:
as §1
as §2, with “This” for “SRI has an established program for the primary antiviral analysis of compounds in microtiter assays which measures the ability of a selected compound to inhibit HIV-induced cell killing. This”
as §3, §4, §5
Drugs are solubilized in the appropriate vehicle such as distilled water or DMSO if necessary. Latex gloves, lab coats and masks are used during all phases of the handling process to prevent exposure to potentially harmful agents. The drug is prepared at the appropriate concentration and stored at −20° C. until used by the screening laboratory. The first dilution of each compound is made in a dilution tube with medium to yield a concentration two-fold that of the highest test concentration. Sterile titer tubes are then used to make serial one half-log dilutions of each compound. Following drug dilution, the diluted compound is added to the appropriate well of a 96-well microtiter plate. Up to 12 dilutions can be assayed conveniently in triplicate on a single plate with all appropriate controls including cell control, virus control, toxicity control, drug color control, medium control and plastic (background) control. When testing includes only six dilutions, two drugs can be assayed on a single microtiter plate. The drugs are added to the plate in a final volume of 100 microliters.
as §6, §7, §8, §9, §10
In general, pools produced by the acute infection method require the addition of one microliter of infectious virus per well resulting in the screening of drugs at a multiplicity of infection of 0.01. In this manner, enough virus is prepared and frozen to complete over one thousand microtiter plates, allowing the testing of up to two thousand compounds from a single stock of infectious virus.
Virus infection of the CEM and MT-2 cells for the antiviral assay is carried out in a bulk infection process.

Where [5] appears, read: normalized to positive control (=1.0), * = a calculated average, read-out: Fluorescence Assay IC50 in ng/mL (converted).
Setting [6] is: value as run, 35B value of the same run in footnote or parentheses, read-out: Pandex IC50 ng/ml (converted).
[7] abbreviates: normalized to positive control (=1.0), * = a calculated average.
Where [8] appears, read: value as run, 35B value of the same run in footnote or parentheses.

As to `CN1CCc2c(cccc2C(=O)N[C@@H](CSc2ccc3ccccc3c2)[C@H](O)Cc2ccccc2C(=O)NC(C)(C)C)C1` (relative stereo) [Example 59, [2′R-(2′R*,3′S*)]-N-t-Butyl-2-[2′-hydroxy-3′-naphth-2-ylthiomethyl-4′-aza-5′-oxo-5′-[2-N′(methyl)-1″,2″,3″,4″-tetrahydroisoquinolin-5″-yl)pentyl] benzamide], the melting point was 110 to 113 °C. Moreover, the IC50 in data set [1] (setting [5]) was 587 nM.
`Cc1c(OP(=O)(O)O)cccc1C(=O)N[C@@H](Cc1ccccc1)[C@H](O)CN1C[C@H]2CCCC[C@H]2C[C@H]1C(=O)NC(C)(C)C` (relative stereo) [Example 78, [3S-(3R*, 4aR*, 8aR*, 2′S*, 3′R*)]-2-[2′-Hydroxy-3′-phenylmethyl-4′-aza-5′-oxo-5′-(2″-methyl-3″-Hydroxyphenyl)pentyl]decahydroisoquinoline-3-N-t-butyl carboxamide 3″-dihydrogen phosphate]: the IC50 is 3240 nM in data set [1] (setting [6]) and 8.64 nM in data set [2] (read-out: Whole cell IC50 nM, CEM cells). Further, in data set [2] (read-out: Whole cell IC90 nM, CEM cells), the IC90 came out at 66.5 nM. In addition, in data set [3], the “SRI MT2 IC50” value came out at 0.08 µg/mL.
On to `CC(C)(C)NC(=O)[C@@H]1C[C@@H]2SCC[C@@H]2CN1C[C@@H](O)[C@H](CSc1ccccc1)NC(=O)C1CCS(=O)(=O)C1` (relative stereo) [Example 89, [6S-(6R*, 3aS*, 7aR*, 2′S*, 3′S*)]-2-[2′-Hydroxy-3′-phenylthiomethyl-4′-aza-5′-oxo-5′-(tetrahydrothieno-3″-yl-1″,1″-dioxide)pentyl]-octahydrothieno[3,2-c]pyridine-6-N-t-butyl carboxamide], for which the “CEM IC95” value in data set [4] was found to be 98 nM. Further, the IC50 in data set [1] (setting [6]) was 0.856 nM.
For `CC(C)(C)NC(=O)C1CC2CCCCC2CN1CC(O)C(Cc1ccccc1)NC(=O)c1cccc(Cl)c1Cl` (stereo not drawn) [Example 14, [3S-(3R*,4aR*,8aR*,2′S*,3′R*)]-2-[2′-Hydroxy-3′-phenylmethyl-4′-aza-5′-oxo-5′-(2″,3″-dichloro-phenyl)pentyl] decahydroisoquinoline-3-N-t-butylcarboxamide], the “Fluorescence Assay IC50” value in data set [1] (setting [7]) is 0.101 µg/mL. Also, in data set [1] (setting [8]), the “Pandex IC50 ng/ml” value was 48.7^d ng/ml. The “SRI MT2 IC50” value in data set [3] was 1.61 µg/mL and 1.29 µg/mL.
For `Cc1cnccc1C(=O)NC(CSc1ccccc1)C(O)CN1CCN(Cc2cccnc2)CC1C(=O)NC(C)(C)C` (stereo not drawn) [Example 35, [2S-(2R*,2′S*,3′S*)]-1-[2′-Hydroxy-3′-phenylthiomethyl-4′-aza-5′-oxo-5′-(3″-methyl-pyrid-4″-yl)[pentyl]-4-(pyrid-3′″-ylmethyl)piperazine-2-N-t-butylcarboxamide], in data set [1] (setting [7]), the “Fluorescence Assay IC50” value was 0.0317 µg/mL. For the same compound, the “Pandex IC50 ng/ml” value in data set [1] (setting [8]) is listed as 73^c ng/ml. Besides, in data set [3], the “SRI MT2 IC50” value was 0.519 µg/mL and 0.368 µg/mL.
`Cc1c(N)cccc1C(=O)NC(CSc1ccc2ccccc2c1)C(O)Cc1ccccc1C(=O)NC(C)(C)C` (stereo not drawn) [Example 42, [2′R-(2′R*,3′S*)]-N-t-Butyl-2-[2′-hydroxy-3′-naphth-2-ylthiomethyl-4′-aza-5′-oxo-5′-(2″-methyl-3″-aminophenyl)pentyl] benzamide] gave a melting point of 105 to 106 °C. In data set [1] (setting [5]), the IC50 was 191 nM.
`CC(C)(C)NC(=O)c1ccccc1C[C@@H](O)[C@@H](CSc1ccc2ccccc2c1)NC(=O)c1cccc(N)c1Cl` [Example 44, [2′R-(2′R*,3′S*)]-N-t-Butyl-2-[2′-hydroxy-3′-naphth-2-ylthiomethyl-4′-aza-5′-oxo-5′-(2″-chloro-3″-aminophenyl)pentyl] benzamide] displayed a melting point of 107 to 108 °C. The IC50 in data set [1] (setting [5]) is 121 nM.
For `CC(C)(C)NC(=O)c1ccccc1CC(O)C(CSc1ccc2ccccc2c1)NC(=O)c1cccc(N)c1Br` (stereo not drawn) [Example 45, [2′R-(2′R*,3′S*)]-N-t-Butyl-2-[2′-hydroxy-3′-naphth-2-ylthiomethyl-4′-aza-5′-oxo-5′-(2″-bromo-3″-aminophenyl)pentyl] benzamide] the same measures were 110 to 112 °C and 214 nM.
The corresponding values for `CC(C)(C)NC(=O)c1c(CC(O)C(CSc2ccc3ccccc3c2)NC(=O)c2cccc(N)c2Cl)ccc2ccccc12` (stereo not drawn) [Example 49, [2′R-(2′R*,3′S*)]-N-t-Butyl-2-[2′-hydroxy-3′-naphth-2-ylthiomethyl-4′-aza-5′-oxo-5′-(2″-chloro-3″-aminophenyl)pentyl]-1-naphthylamide] are 110 to 112 °C and 137 nM.
The corresponding values for `CC(C)(C)NC(=O)c1ccccc1CC(O)C(CSc1ccc2ccccc2c1)NC(=O)c1cccc(N)c1` (stereo not drawn) [Example 50, [2′R-(2′R*,3′S*)]-N-t-Butyl-2-[2′-hydroxy-3′-naphth-2-ylthiomethyl-4′-aza-5′-oxo-5′-(3″-aminophenyl)pentyl] benzamide] are 101 to 102 °C and 222 nM.
Compound `CC(C)(C)NC(=O)c1ccccc1CC(O)C(CSc1ccc2ccccc2c1)NC(=O)c1cc(N)ccc1Cl` (stereo not drawn) [Example 55, [2′R-(2′R*,3′S*)]-N-t-Butyl-2-[2′-hydroxy-3′-naphth-2-ylthiomethyl-4′-aza-5′-oxo-5′-(2″-chloro-5″-aminophenyl)pentyl] benzamide] returned a melting point of 109 to 110 °C. Moreover, the IC50 in data set [1] (setting [5]) was 194 nM.
For the compound `CC(C)(C)NC(=O)c1ccccc1C[C@@H](O)[C@@H](CSc1ccc2ccccc2c1)NC(=O)c1cccc2ccccc12` [Example 61, [2′R-(2′R*,3′S*)]-N-t-Butyl-2-[2′-hydroxy-3′-naphth-2-ylthiomethyl-4′-aza-5′-oxo-5′-(naphth-1″-yl)pentyl] benzamide], the melting point is 92 to 95 °C. Besides, in data set [1] (setting [5]), the IC50 is 2770 nM.

The values above are taken from patent publication US20030216569A1, “Method of making HIV protease inhibitors” (priority 1993, published 2003).
